Reference: patent publication US20070203091A1, “Methods and therapeutic compositions for improving liver, blood flow and skeletal muscle functions in advanced diseases and aging” (priority 2006, published 2007)

Tests used:
[1] = cited from earlier work
[2] = Voluntary (skeletal) muscle strength, hand grip strength, Phase I study; assay type: in vivo, human; conditions: for Skeletal Muscle Strength, Change from Baseline, Mean / Skeletal Muscle Strength, Change from Baseline, Median / Skeletal Muscle Strength, Observed Values, Mean / Skeletal Muscle Strength, Observed Values, Median: ITT
Protocol: Procedure for measuring voluntary (skeletal) muscle strength-hand grip strength • 1. This measurement will be performed in the standing position (without support) using the patients' dominant hand in the horizontal outstretched position of 90 degrees to the body. • 2. Measurements will be taken using a calibrated and well maintained hand-held commercially available dynamometer. • 3. All measurements that are performed during the treatment period will be taken prior to placement of intravenous cannula and prior to study treatment administration • 4. Patients will undertake the hand-grip strength maneuver after initial training—with encouragement from the observer to “do their best”. This will be performed ×3 with no more than 30 seconds between attempts. • 5. The maximal value of the three attempts will be recorded as the hand-grip strength on that day. • 6. The testing will be performed and documented by the same individual member of the research team (as often as is practically possible). • The dynamometer instrument will be to the greatest extent possible the same instrument for any one patient throughout the study and will be initially calibrated and checked for accuracy prior to the study and thereafter on a regular basis. ATP Therapeutics, Inc.

[3] = Cachexia markers Part I: serum albumin, pre-albumin, C-Reactive Protein, Phase I study; assay type: in vivo, human; conditions: for C-Reactive Protein, Change from Baseline, Mean / C-Reactive Protein, Change from Baseline, Median / C-Reactive Protein, Observed Values, Mean / C-Reactive Protein, Observed Values, Median / Pre-albumin, Change from Baseline, Mean / Pre-albumin, Change from Baseline, Median / Pre-albumin, Observed Values, Mean / Pre-albumin, Observed Values, Median / Serum Albumin, Change from Baseline, Mean / Serum Albumin, Change from Baseline, Median / Serum Albumin, Observed Values, Mean / Serum Albumin, Observed Values, Median: ITT
Excerpt: The data for albumin, LDH and Bilirubin support claims reciting improvement in liver function by claimed treatment of a human host in need thereof. Serum LDH levels are an established strong independent negative prognostic factor, inversely related to survival in a great variety of adverse clinical conditions. In advanced refractory cancers, high LDH and low Karnofsky's performance status are among the strongest established independent negative prognostic factors of survival and quality of life (29).

[4] = Week <1 (Screening), baseline, N=15
[5] = Week 1 (Infusion 1), baseline, N=15

## Nc1ncnc2c1ncn2[C@@H]1O[C@H](COP(=O)(O)OP(=O)(O)OP(=O)(O)O)[C@@H](O)[C@H]1O [ATP, adenosine 5′-triphosphate]
[1]; blood plasma ATP about 1 microM
  increase in vascular diameter: 8%
[1]; blood plasma ATP about 1 microM, corresponding to the increase in vascular diameter
  increase in blood flow: ≥ 17%
[1]; intraluminal, physiological concentrations
  site of vasodilation: not only local vasodilation, but also vasodilation at sites upstream from the site of its application
[2]; Week 1 (Infusion 1), N=6
  Skeletal Muscle Strength, Change from Baseline, Mean: -1.7 kg
  Skeletal Muscle Strength, Change from Baseline, Median: -1.5 kg
  Skeletal Muscle Strength, Observed Values, Mean: 38.5 kg
  Skeletal Muscle Strength, Observed Values, Median: 35.0 kg
[2]; Week 2 (Infusion 2), N=14
  Skeletal Muscle Strength, Change from Baseline, Mean: -1.4 kg
  Skeletal Muscle Strength, Change from Baseline, Median: -2.0 kg
  Skeletal Muscle Strength, Observed Values, Mean: 34.6 kg
  Skeletal Muscle Strength, Observed Values, Median: 34.0 kg
[2]; Week 4 (Infusion 4), N=11
  Skeletal Muscle Strength, Change from Baseline, Mean: -4.1 kg
  Skeletal Muscle Strength, Change from Baseline, Median: -2.0 kg
  Skeletal Muscle Strength, Observed Values, Mean: 31.5 kg
  Skeletal Muscle Strength, Observed Values, Median: 32.0 kg
[2]; Week 8 (Infusion 8), N=7
  Skeletal Muscle Strength, Change from Baseline, Mean: -2.4 kg
  Skeletal Muscle Strength, Change from Baseline, Median: -2.0 kg
  Skeletal Muscle Strength, Observed Values, Mean: 30.0 kg
  Skeletal Muscle Strength, Observed Values, Median: 26.0 kg
[2]; Week 10 (Follow-up), N=6
  Skeletal Muscle Strength, Change from Baseline, Mean: 1.8 kg
  Skeletal Muscle Strength, Change from Baseline, Median: -3.0 kg
  Skeletal Muscle Strength, Observed Values, Mean: 33.7 kg
  Skeletal Muscle Strength, Observed Values, Median: 30.0 kg
[2]; Week 13 (follow-up), N=4
  Skeletal Muscle Strength, Change from Baseline, Mean: 6.3 kg
  Skeletal Muscle Strength, Change from Baseline, Median: -1.0 kg
  Skeletal Muscle Strength, Observed Values, Mean: 32.5 kg
  Skeletal Muscle Strength, Observed Values, Median: 26.0 kg
[2]; [4]
  Skeletal Muscle Strength, Change from Baseline, Mean: 0.0 kg
  Skeletal Muscle Strength, Change from Baseline, Median: 0.0 kg
  Skeletal Muscle Strength, Observed Values, Mean: 35.1 kg
  Skeletal Muscle Strength, Observed Values, Median: 35.0 kg
[2]; beginning at week 8 and up to week 13
  skeletal muscle strength: stabilize and improve
[2]; patients 502-505, screening (week <1) to week 8 (last infusion cycle)
  Skeletal Muscle Strength (voluntary): Small increase
[3]; [5]
  C-Reactive Protein, Change from Baseline, Mean: 0.0 mg/dL
  C-Reactive Protein, Change from Baseline, Median: 0.0 mg/dL
  C-Reactive Protein, Observed Values, Mean: 5.1 mg/dL
  C-Reactive Protein, Observed Values, Median: 3.4 mg/dL
  Pre-albumin, Change from Baseline, Mean: 0.0 mg/dL
  Pre-albumin, Change from Baseline, Median: 0.0 mg/dL
  Pre-albumin, Observed Values, Mean: 19.7 mg/dL
  Pre-albumin, Observed Values, Median: 18.0 mg/dL
  Serum Albumin, Change from Baseline, Mean: 0.0 g/dL
  Serum Albumin, Change from Baseline, Median: 0.0 g/dL
  Serum Albumin, Observed Values, Mean: 3.3 g/dL
  Serum Albumin, Observed Values, Median: 3.4 g/dL
[3]; Week 2 (Infusion 2), N=13
  Pre-albumin, Change from Baseline, Mean: -1.2 mg/dL
  Pre-albumin, Change from Baseline, Median: 0.0 mg/dL
  Pre-albumin, Observed Values, Mean: 19.4 mg/dL
  Pre-albumin, Observed Values, Median: 17.0 mg/dL
[3]; Week 2 (Infusion 2), N=14
  C-Reactive Protein, Change from Baseline, Mean: 0.1 mg/dL
  C-Reactive Protein, Change from Baseline, Median: 0.5 mg/dL
  C-Reactive Protein, Observed Values, Mean: 5.0 mg/dL
  C-Reactive Protein, Observed Values, Median: 3.3 mg/dL
  Serum Albumin, Change from Baseline, Mean: -0.1 g/dL
  Serum Albumin, Change from Baseline, Median: 0.0 g/dL
  Serum Albumin, Observed Values, Mean: 3.2 g/dL
  Serum Albumin, Observed Values, Median: 3.2 g/dL
[3]; Week 4 (Infusion 4), N=9
  C-Reactive Protein, Change from Baseline, Mean: 2.5 mg/dL
  C-Reactive Protein, Change from Baseline, Median: 1.6 mg/dL
  C-Reactive Protein, Observed Values, Mean: 6.6 mg/dL
  C-Reactive Protein, Observed Values, Median: 6.1 mg/dL
[3]; Week 4 (Infusion 4), N=10
  Pre-albumin, Change from Baseline, Mean: -1.3 mg/dL
  Pre-albumin, Change from Baseline, Median: 0.0 mg/dL
  Pre-albumin, Observed Values, Mean: 16.5 mg/dL
  Pre-albumin, Observed Values, Median: 17.0 mg/dL
[3]; Week 4 (Infusion 4), N=11
  Serum Albumin, Change from Baseline, Mean: -0.2 g/dL
  Serum Albumin, Change from Baseline, Median: -0.2 g/dL
  Serum Albumin, Observed Values, Mean: 3.2 g/dL
  Serum Albumin, Observed Values, Median: 3.0 g/dL
[3]; Week 6 (Infusion 6), N=8
  C-Reactive Protein, Change from Baseline, Mean: 0.2 mg/dL
  C-Reactive Protein, Change from Baseline, Median: 0.0 mg/dL
  C-Reactive Protein, Observed Values, Mean: 4.5 mg/dL
  C-Reactive Protein, Observed Values, Median: 2.5 mg/dL
  Pre-albumin, Change from Baseline, Mean: -7.5 mg/dL
  Pre-albumin, Change from Baseline, Median: -4.5 mg/dL
  Pre-albumin, Observed Values, Mean: 16.6 mg/dL
  Pre-albumin, Observed Values, Median: 16.0 mg/dL
[3]; Week 6 (Infusion 6), N=9
  Serum Albumin, Change from Baseline, Mean: -0.1 g/dL
  Serum Albumin, Change from Baseline, Median: -0.2 g/dL
  Serum Albumin, Observed Values, Mean: 3.2 g/dL
  Serum Albumin, Observed Values, Median: 3.1 g/dL
[3]; Week 8 (Infusion 8), N=6
  C-Reactive Protein, Change from Baseline, Mean: 3.7 mg/dL
  C-Reactive Protein, Change from Baseline, Median: 0.0 mg/dL
  C-Reactive Protein, Observed Values, Mean: 9.0 mg/dL
  C-Reactive Protein, Observed Values, Median: 4.7 mg/dL
[3]; Week 8 (Infusion 8), N=7
  Pre-albumin, Change from Baseline, Mean: -6.3 mg/dL
  Pre-albumin, Change from Baseline, Median: -4.0 mg/dL
  Pre-albumin, Observed Values, Mean: 19.6 mg/dL
  Pre-albumin, Observed Values, Median: 19.0 mg/dL
  Serum Albumin, Change from Baseline, Mean: -0.1 g/dL
  Serum Albumin, Change from Baseline, Median: -0.1 g/dL
  Serum Albumin, Observed Values, Mean: 3.3 g/dL
  Serum Albumin, Observed Values, Median: 3.4 g/dL
[3]; Week 10 (Follow-up), N=4
  C-Reactive Protein, Change from Baseline, Mean: 6.0 mg/dL
  C-Reactive Protein, Change from Baseline, Median: -0.7 mg/dL
  C-Reactive Protein, Observed Values, Mean: 11.2 mg/dL
  C-Reactive Protein, Observed Values, Median: 7.0 mg/dL
[3]; Week 10 (Follow-up), N=6
  Pre-albumin, Change from Baseline, Mean: -8.3 mg/dL
  Pre-albumin, Change from Baseline, Median: -1.0 mg/dL
  Pre-albumin, Observed Values, Mean: 20.2 mg/dL
  Pre-albumin, Observed Values, Median: 18.5 mg/dL
  Serum Albumin, Change from Baseline, Mean: 0.0 g/dL
  Serum Albumin, Change from Baseline, Median: -0.1 g/dL
  Serum Albumin, Observed Values, Mean: 3.6 g/dL
  Serum Albumin, Observed Values, Median: 3.7 g/dL
[3]; Week 13 (Follow-up), N=5
  C-Reactive Protein, Change from Baseline, Mean: 5.3 mg/dL
  C-Reactive Protein, Change from Baseline, Median: 0.0 mg/dL
  C-Reactive Protein, Observed Values, Mean: 9.1 mg/dL
  C-Reactive Protein, Observed Values, Median: 0.4 mg/dL
  Pre-albumin, Change from Baseline, Mean: -8.4 mg/dL
  Pre-albumin, Change from Baseline, Median: 0.0 mg/dL
  Pre-albumin, Observed Values, Mean: 22.4 mg/dL
  Pre-albumin, Observed Values, Median: 24.0 mg/dL
[3]; Week 13 (Follow-up), N=6
  Serum Albumin, Change from Baseline, Mean: -0.0 g/dL
  Serum Albumin, Change from Baseline, Median: -0.1 g/dL
  Serum Albumin, Observed Values, Mean: 3.5 g/dL
  Serum Albumin, Observed Values, Median: 3.5 g/dL
[3]; after 13 weeks
  levels of C-Reactive Protein: continued to increase
  levels of pre-albumin: decreased
  serum albumin levels: stabilize and prevent a drop
